# Experimental data published in ChEMBL document CHEMBL1126676, “On the prediction of binding properties of drug molecules by comparative molecular field analysis” (1993).
# Test system: not listed separately
# Assay: Negative logarithm of minimal inhibitory concentration against human rhinovirus 14
# Format: functional
row,-ln (MIC),SMILES
1,17.7,CC[C@H]1COC(c2ccc(OCCCCCCCc3cc(C)no3)cc2)=N1
2,15.4,Cc1cc(CCCCCCCOc2ccc(C3=N[C@@H](C)CO3)cc2Cl)on1
3,17.3,Cc1cc(CCCCCCCOc2ccc(C3=N[C@@H](C)CO3)cc2)on1
4,14.5,Cc1cc(CCCCCOc2ccc(C3=NCCO3)cc2)on1
5,14.3,Cc1cc(CCCCCCCOc2ccc(C3=NCCO3)cc2)on1 [DISOXARIL]
6,12.9,Cc1cc(CCCCCOc2ccc(C3=NCCO3)cc2Cl)on1
7,14.3,Cc1cc(CCCCCOc2ccc(C3=N[C@@H](C)CO3)cc2)on1
8,14.7,Cc1cc(CCCCCCCOc2ccc(C3=N[C@H](C)CO3)cc2)on1

# Biological target: T1, Thermolysin (Bacillus thermoproteolyticus) (UniProt P00800)
# T1 sequence (whole entry): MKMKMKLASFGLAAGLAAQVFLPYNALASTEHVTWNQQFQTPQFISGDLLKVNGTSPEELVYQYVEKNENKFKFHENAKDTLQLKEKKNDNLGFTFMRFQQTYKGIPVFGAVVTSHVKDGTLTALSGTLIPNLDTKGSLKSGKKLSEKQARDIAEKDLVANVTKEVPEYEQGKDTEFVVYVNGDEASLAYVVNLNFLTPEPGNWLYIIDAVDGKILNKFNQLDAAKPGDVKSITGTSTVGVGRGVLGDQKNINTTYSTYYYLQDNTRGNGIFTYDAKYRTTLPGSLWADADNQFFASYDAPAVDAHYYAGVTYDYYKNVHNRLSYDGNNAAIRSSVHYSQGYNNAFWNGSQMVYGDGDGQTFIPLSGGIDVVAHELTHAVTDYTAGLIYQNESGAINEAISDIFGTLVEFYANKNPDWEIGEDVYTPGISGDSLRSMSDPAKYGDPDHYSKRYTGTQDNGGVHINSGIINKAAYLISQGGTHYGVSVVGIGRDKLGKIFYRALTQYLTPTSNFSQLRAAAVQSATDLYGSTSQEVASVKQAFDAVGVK
# Assay: Binding constant against thermolysin expressed as negative logarithm
row,-ln K,SMILES
1,17.8,CC(C)CC(CP(=O)(O)CNC(=O)OCc1ccccc1)C(=O)NC(C)C(=O)O (stereo unspecified)
2,8.38,CC(C)CC(OP(=O)(O)CNC(=O)OCc1ccccc1)C(=O)NCC(=O)O (stereo unspecified)
3,11.6,CC(C)CC(NC(=O)C(CC(C)C)OP(=O)(O)CNC(=O)OCc1ccccc1)C(=O)O (stereo unspecified)
4,8.57,CC(C)CC(N)C(=O)NO (stereo unspecified)
5,9.85,CC(C)CC(OP(=O)(O)CNC(=O)OCc1ccccc1)C(=O)NC(Cc1ccccc1)C(=O)O (stereo unspecified)
6,15,CC(C)CC(CP(=O)(O)CNC(=O)OCc1ccccc1)C(=O)NCC(=O)O (stereo unspecified)
7,14.7,CC(NC(=O)C(Cc1ccccc1)C(=O)NO)C(=O)NCCO (stereo unspecified)
8,11.2,CC(C)CC(OP(=O)(O)CNC(=O)OCc1ccccc1)C(=O)NC(C)C(=O)O (stereo unspecified)
